Measurements as given in patent US20250096297A1, “NOVEL AQUEOUS-PHASE REDOX FLOW BATTERIES” (KEMIWATT, priority 2022, published 2025).
Values after ≈ are worked out from the molar mass of the structure shown. Where two headings read alike, the source gives them in different places. Each block holds one compound with its values, some of them ahead of it.

Legend:
[1] = Solubility in water of formula (I) compounds in the presence of different bases (Example 2); settings: for relative solubility, 1,1,3,3-Tetramethyl guanidine: 1.2 mol/L 1,1,3,3-Tetramethyl guanidine; for relative solubility, (NH3)aq: 1.2 mol/L (NH3)aq; for relative solubility, CsOH: 1.2 mol/L CsOH; for relative solubility, KOH: 1.2 mol/L KOH; for relative solubility, LiOH: 1.2 mol/L LiOH; for relative solubility, N-Ethyl pyrrolidine: 1.2 mol/L N-Ethyl pyrrolidine; for relative solubility, NEt3: 1.2 mol/L NEt3; for relative solubility, NMe4OH: 1.2 mol/L NMe4OH; for relative solubility, PBu4OH: 1.2 mol/L PBu4OH; for relative solubility, RbOH: 1.2 mol/L RbOH; for solubility: aqueous NaOH solution, aqueous buffer
[2] = conjugate acid of the base, cited from earlier work
[3] = formed cation, cited from earlier work; for Volume: derived from the literature
[4] = Chemical compatibility of bases with the posolyte: SOC of ferricyanide solution by linear voltammetry; assay type: physicochemical; settings: 0.5 mol/L ferricyanide, 0.1 mol/L compound, pH about 13, 7 days in sealed flask
physchem [5] = settings: aqueous buffer
physchem [6] = settings: aqueous buffer; remark: listed apart in the source
[7] = relative to solubility in 1 mol/L NaOH
[8] = literature (Charlot) or predicted by COSMO-RS
[9] = footnote b, hexa-coordinate cation within a crystal (Shannon 1976)
[10] = footnote a (Hall, J. Amer. Chem. Soc 1957)

relative solubility, 1,1,3,3-Tetramethyl guanidine [1, 7]: ×4100 | relative solubility, (NH3)aq [1, 7]: ×50 | relative solubility, CsOH [1, 7]: ×70 | relative solubility, KOH [1, 7]: ×10 | relative solubility, LiOH [1, 7]: ×14 | relative solubility, N-Ethyl pyrrolidine [1, 7]: ×2000 | relative solubility, NEt3 [1, 7]: ×2000 | relative solubility, NMe3 ([1]; 1.2 mol/L NMe3, relative to solubility in 1 mol/L NaOH): ×2000 | relative solubility, NMe4OH [1, 7]: ×3700 | relative solubility, PBu4OH [1, 7]: ×4100 | relative solubility, RbOH [1, 7]: ×150 | solubility [1]: 0.25 mM
SMILES: O=C(O)c1ccc2c(c1)C(=O)c1ccccc1C2=O

SMILES: CN(C)C(=N)N(C)C [1,1,3,3-Tetramethyl guanidine, 1,1,3,3-tetramethylguanidine]
pKa [2, 8]: 13.0

SMILES: N [Ammonia]
Volume [3]: 13.6 Å^3 | Radius ([3]; footnote c (Sidey 2016)): 1.48^c Å

SMILES: [Cs+].[OH-] [Caesium hydroxide]
Volume [3]: 19.5 Å^3 | Radius [3, 9]: 1.67^b Å

SMILES: C[N+](C)(C)CCO.[OH-] [CholineOH, choline hydroxide]
SOC after a contact time of 7 days with ferricyanide [4]: 82.7%

SMILES: C1CCC2=NCCCN2CC1 [DBU, 1,8-diazabicyclo[5.4.0]undec-7-ene]
pKa [2, 8]: 13.5

SMILES: CCCCCCCCCCCC[N+](C)(C)CCCCCCCCCCCC [Didodecyl, dimethyl ammonium, didodecyldimethylammonium hydroxide]
pKa [2, 8]: 14

SMILES: CCN(C)C [Dimethyl, ethyl amine, ethyldimethylamine]
pKa [2, 10]: 10.0^a

SMILES: [Li+].[OH-] [Lithium hydroxide]
Volume [3]: 1.8 Å^3 | Radius [3, 9]: 0.76^b Å

SMILES: CCN(C)CC [Methyl, diethyl amine, diethylmethylamine]
pKa [2, 10]: 10.3^a

SMILES: C[N+]1(C)CCCCC1.[OH-] [N,N-Dimethyl piperidinium, N,N-dimethylpiperidinium hydroxide]
pKa [2, 8]: 14

SMILES: C[N+]1(C)CCCC1.[OH-] [N,N-Dimethyl pyrrolidinium, N,N-dimethylpyrrolidinium hydroxide]
pKa [2, 8]: 14

SMILES: CCN1CCCCC1 [N-Ethyl piperidine, N-ethylpiperidine]
pKa [2, 10]: 10.4^a

SMILES: CCN1CCCC1 [N-Ethyl pyrrolidine, N-ethylpyrrolidine]
pKa [2, 8]: 10.7

SMILES: C[n+]1ccccc1.[OH-] [N-Methyl pyridinium, N-methylpyridinium hydroxide]
pKa [2, 8]: 14

SMILES: CN1CCCC1 [N-Methyl pyrrolidine, N-methylpyrrolidine]
pKa [2, 10]: 10.5^a

SMILES: [K+].[OH-] [Potassium hydroxide]
Volume [3]: 11.0 Å^3 | Radius [3, 9]: 1.38^b Å

SMILES: [OH-].[Rb+] [Rubidium hydroxide]
Volume [3]: 14.7 Å^3 | Radius [3, 9]: 1.52^b Å

SMILES: [Na+].[OH-] [Sodium hydroxide]
Volume [3]: 4.4 Å^3 | Radius [3, 9]: 1.02^b Å

SMILES: C[N+](C)(C)C [Tetramethyl ammonium, tetramethylammonium hydroxide]
pKa [2, 8]: 14

SMILES: C[N+](C)(C)Cc1ccccc1.[OH-] [Tetramethyl, benzyl ammonium, trimethyl benzylammonium hydroxide]
pKa [2, 8]: 14

SMILES: CCCCCCCCCCCCCCCC[N+](C)(C)C [Trimethyl, cetyl ammonium, trimethyl cetylammonium hydroxide]
pKa [2, 8]: 14

solubility (physchem [5]): 23 mM (≈ 5520 µg/mL)
SMILES: O=C1c2ccccc2C(=O)c2c1ccc(O)c2O [alizarin]

relative solubility, 1,1,3,3-Tetramethyl guanidine [1, 7]: ×82 | relative solubility, (NH3)aq [1, 7]: ×3 | relative solubility, CsOH [1, 7]: ×32 | relative solubility, DBU ([1]; 1.2 mol/L DBU, relative to solubility in 1 mol/L NaOH): ×234 | relative solubility, KOH [1, 7]: ×8 | relative solubility, LiOH [1, 7]: ×0.03 | relative solubility, N-Ethyl pyrrolidine [1, 7]: ×13 | relative solubility, N-Methyl pyrrolidine ([1]; 1.2 mol/L N-Methyl pyrrolidine, relative to solubility in 1 mol/L NaOH): ×7 | relative solubility, NEt3 [1, 7]: ×3 | relative solubility, NMe4OH [1, 7]: ×213 | relative solubility, PBu4OH [1, 7]: ×211 | relative solubility, RbOH [1, 7]: ×16 | relative solubility, Trimethyl, benzyl ammonium ([1]; 1.2 mol/L Trimethyl, benzyl ammonium, relative to solubility in 1 mol/L NaOH): ×255 | solubility [1]: 3.8 mM
SMILES: O=C1c2ccccc2C(=O)c2c(O)ccc(O)c21 [drawing 31, quinizarin]

SOC after a contact time of 7 days with ferricyanide [4]: 77.7%
SMILES: O=C(O)[C@@H]1CCCN1 [proline]

solubility (physchem [6]): 31 mM (≈ 7450 µg/mL)
SMILES: O=C1c2ccccc2C(=O)c2c(O)ccc(O)c21 [quinizarin]
